Ki data for six compounds are collected here from US10954217B2 (priority 2016, dated 2021).

Common to all, as to assay: biochemical
The target in experiment [1] is 5-HT2C (Homo sapiens (Human), UniProt P28335).
Experiment [2] has as its target Alpha2C (Homo sapiens (Human), UniProt P18825).
Experiment [3] addresses Alpha2B (Homo sapiens (Human), UniProt P18089).
Experiment [4] deals with H2 (Homo sapiens (Human), UniProt P25021).
The target in experiment [5] is Alpha2A (Homo sapiens (Human), UniProt P08913).
The target in experiment [6] is 5-HT2B (Homo sapiens (Human), UniProt P41595).
The target of experiment [7] is KOR (Homo sapiens (Human), UniProt P41145).
The target of experiment [8] is D3 (Homo sapiens (Human), UniProt P35462).
In experiment [9] the target is M2 (Homo sapiens (Human), UniProt P08172).
For experiment [10], the target named is M4 (Homo sapiens (Human), UniProt P08173).
Experiment [11] addresses M5 (Homo sapiens (Human), UniProt P08912).
The target of experiment [12] is M3 (Homo sapiens (Human), UniProt P20309).
For experiment [13], the target named is H1 (Homo sapiens (Human), UniProt P35367).
The target of experiment [14] is D4 (Homo sapiens (Human), UniProt P21917).
Experiment [15] addresses Alpha1D (Homo sapiens (Human), UniProt P25100).
The target of experiment [16] is 5-HT2A (Homo sapiens (Human), UniProt P28223).
In experiment [17] the target is Alpha1B (Homo sapiens (Human), UniProt P35368).

pKi: −log10 of the molar value.

Broadly, the pKi is the negative decadic logarithm of the Ki, by convention in mol/L. On to `Clc1cc(Cl)cc(CN2Cc3ccc(N4CCOCC4)cc3C2)c1`, for which the pKi in [1] is 5.86; in experiment [2] it was 5.34; in [3] it was 5.17; in experiment [4], 5.93; in [5] it was 5.63; in [6], 6.15.

Regarding `CN1CCN(c2ccc3c(c2)CN(S(=O)(=O)c2cc(Cl)cc(Cl)c2)CC3)CC1`, the pKi was 5.59 in [7]; 6.57 in [8]; 5.97 in [1]; 5.78 in [9]; 6.69 in experiment [6]; 5.64 in [10]. Further, the pKi was 5.63 in experiment [11], 5.69 in experiment [12] and 5.32 in [13].

For the compound `Clc1cc(Cl)cc(CN2CCc3ccc(N4CCOCC4)cc3C2)c1`, the pKi in experiment [8] was 5.49; in [14], 6.01; in experiment [13], 5.88.

As to `C=CCN1CCN(c2ccc3c(c2)CN(S(=O)(=O)c2cc(Cl)cc(Cl)c2)CC3)CC1`, the pKi in experiment [7] was 5.66; in [8], 6.97; in experiment [15], 5.46; in experiment [6], 6.40; in experiment [11] it was 5.45; in experiment [12] it was 5.71. Further, the negative logarithm of the Ki (pKi) in [13] is 6.62.

For the compound `CN1CCN(c2ccc3c(c2)CN(S(=O)(=O)c2cc(Cl)cc(Cl)c2)C3)CC1`, the pKi is 5.07 in experiment [7]; 6.22 in experiment [8]; 6.08 in experiment [1]; 6.28 in [16]; 5.19 in [15]; 5.41 in experiment [9]. Also, the pKi in experiment [10] is 5.45; in experiment [11], 5.68; in experiment [12], 5.71; in experiment [13], 6.31.

`C=CCN1CCN(c2ccc3c(c2)CN(S(=O)(=O)c2cc(Cl)cc(Cl)c2)C3)CC1`: the negative logarithm of the Ki (pKi) in [8] was 6.66; in experiment [2], 6.77; in [16] it was 6.29; in [17], 5.86; in [9], 5.38; in experiment [10] it was 5.72. In addition, the pKi in [11] is 5.89; in experiment [12], 6.15.
